# Assay results taken from BindingDB's records for doi:10.1021/jm960441m (Upjohn, 1997).
# Biological target: T1, Dimer of Gag-Pol polyprotein [489-587] (Human immunodeficiency virus 1, UniProt P04585)
# T1 construct: 489-587
# Assay: Protease Inhibition Assay
# Settings: pH 5; 22 °C
# Description: (§1) HIV-1 protease was purified and refolded from E. coli inclusion bodies. […] In the presence of HIV-l protease, the substrate is rapidly cleaved into two parts. The biotinylated amino terminal fragment binds to the avidin beads while the FITC-containing carboxy1 terminal fragment is removed through the membrane. […] The bound fluorescence is obtained by processing on an IDEXX Screen Machine. Determination of Ki values with this assay requires analysis under conditions in which substrate concentration resides substantially below Km and the inhibitor concentrations greatly exceeds the Ki value and the enzyme concentration.
row,Compound,Ki [nM]
1,"N#Cc1cccc(S(=O)(=O)Nc2cccc(C(c3c(O)c4c(oc3=O)CCCCCC4)C3CC3)c2)c1 (stereo not given) [3-cyano-N-{3-[cyclopropyl({4-hydroxy-2-oxo-2H,5H,6H,7H,8H,9H,10H-cycloocta[b]pyran-3-yl})methyl]phenyl}benzene-1-sulfonamide]",0.6

# Biological target: T2, Dimer of Gag-Pol polyprotein [489-587] (Human immunodeficiency virus 1, UniProt P12497)
# T2 construct: 489-587
# Assay: Protease Inhibition Assay
# Settings: not given
# Description: as §1
row,Compound,Ki [nM]
1,"O=c1oc2c(c(O)c1C(c1cccc(NS(=O)(=O)c3ccc(I)cc3)c1)C1CC1)CCCCCC2 (stereo not given) [N-{3-[cyclopropyl({4-hydroxy-2-oxo-2H,5H,6H,7H,8H,9H,10H-cycloocta[b]pyran-3-yl})methyl]phenyl}-4-iodobenzene-1-sulfonamide]",3.1
2,"Cc1cccc(C)c1S(=O)(=O)Nc1cccc(C(c2c(O)c3c(oc2=O)CCCCCC3)C2CC2)c1 (stereo not given) [N-{3-[cyclopropyl({4-hydroxy-2-oxo-2H,5H,6H,7H,8H,9H,10H-cycloocta[b]pyran-3-yl})methyl]phenyl}-2,6-dimethylbenzene-1-sulfonamide]",> 200
3,"O=c1oc2c(c(O)c1C(c1cccc(NS(=O)(=O)c3c(Cl)cccc3Cl)c1)C1CC1)CCCCCC2 (stereo not given) [2,6-dichloro-N-{3-[cyclopropyl({4-hydroxy-2-oxo-2H,5H,6H,7H,8H,9H,10H-cycloocta[b]pyran-3-yl})methyl]phenyl}benzene-1-sulfonamide]",> 200
4,"O=c1oc2c(c(O)c1C(c1cccc(NS(=O)(=O)c3ccc(Br)cc3)c1)C1CC1)CCCCCC2 (stereo not given) [4-bromo-N-{3-[cyclopropyl({4-hydroxy-2-oxo-2H,5H,6H,7H,8H,9H,10H-cycloocta[b]pyran-3-yl})methyl]phenyl}benzene-1-sulfonamide]",2.1
5,"[N-]=[N+]=Nc1ccc(S(=O)(=O)Nc2cccc(C(c3c(O)c4c(oc3=O)CCCCCC4)C3CC3)c2)cc1 (stereo not given) [4-azido-N-{3-[cyclopropyl({4-hydroxy-2-oxo-2H,5H,6H,7H,8H,9H,10H-cycloocta[b]pyran-3-yl})methyl]phenyl}benzene-1-sulfonamide]",2.6
6,"O=c1oc2c(c(O)c1C(c1cccc(NS(=O)(=O)c3ccc([N+](=O)[O-])cc3)c1)C1CC1)CCCCCC2 (stereo not given) [N-{3-[cyclopropyl({4-hydroxy-2-oxo-2H,5H,6H,7H,8H,9H,10H-cycloocta[b]pyran-3-yl})methyl]phenyl}-4-nitrobenzene-1-sulfonamide]",2.7
7,"O=c1oc2c(c(O)c1C(c1cccc(NS(=O)(=O)c3ccc(Cl)cc3Cl)c1)C1CC1)CCCCCC2 (stereo not given) [2,4-dichloro-N-{3-[cyclopropyl({4-hydroxy-2-oxo-2H,5H,6H,7H,8H,9H,10H-cycloocta[b]pyran-3-yl})methyl]phenyl}benzene-1-sulfonamide]",6.2
8,"N#Cc1ccc(S(=O)(=O)Nc2cccc(C(c3c(O)c4c(oc3=O)CCCCCC4)C3CC3)c2)nc1 (stereo not given) [5-cyano-N-{3-[cyclopropyl({4-hydroxy-2-oxo-2H,5H,6H,7H,8H,9H,10H-cycloocta[b]pyran-3-yl})methyl]phenyl}pyridine-2-sulfonamide]",1
9,"O=c1oc2c(c(O)c1C(c1cccc(NS(=O)(=O)c3cccc4ccccc34)c1)C1CC1)CCCCCC2 (stereo not given) [N-{3-[cyclopropyl({4-hydroxy-2-oxo-2H,5H,6H,7H,8H,9H,10H-cycloocta[b]pyran-3-yl})methyl]phenyl}naphthalene-1-sulfonamide]",5.5

# Same assay, conditions: pH 5; 22 °C
row,Compound,Ki [nM]
1,"O=c1oc2c(c(O)c1C(c1cccc(NS(=O)(=O)c3cccc([N+](=O)[O-])c3)c1)C1CC1)CCCCCC2 (stereo not given) [N-{3-[cyclopropyl({4-hydroxy-2-oxo-2H,5H,6H,7H,8H,9H,10H-cycloocta[b]pyran-3-yl})methyl]phenyl}-3-nitrobenzene-1-sulfonamide]",4.7
2,"O=c1oc2c(c(O)c1C(c1cccc(NS(=O)(=O)c3cccc(Br)c3)c1)C1CC1)CCCCCC2 (stereo not given) [3-bromo-N-{3-[cyclopropyl({4-hydroxy-2-oxo-2H,5H,6H,7H,8H,9H,10H-cycloocta[b]pyran-3-yl})methyl]phenyl}benzene-1-sulfonamide]",2.6
3,"O=c1oc2c(c(O)c1C(c1cccc(NS(=O)(=O)c3ccccc3Cl)c1)C1CC1)CCCCCC2 (stereo not given) [2-chloro-N-{3-[cyclopropyl({4-hydroxy-2-oxo-2H,5H,6H,7H,8H,9H,10H-cycloocta[b]pyran-3-yl})methyl]phenyl}benzene-1-sulfonamide]",9.3
4,"N#Cc1ccccc1S(=O)(=O)Nc1cccc(C(c2c(O)c3c(oc2=O)CCCCCC3)C2CC2)c1 (stereo not given) [2-cyano-N-{3-[cyclopropyl({4-hydroxy-2-oxo-2H,5H,6H,7H,8H,9H,10H-cycloocta[b]pyran-3-yl})methyl]phenyl}benzene-1-sulfonamide]",7.4
5,"O=c1oc2c(c(O)c1C(c1cccc(NS(=O)(=O)CCc3ccccc3)c1)C1CC1)CCCCCC2 (stereo not given) [N-{3-[cyclopropyl({4-hydroxy-2-oxo-2H,5H,6H,7H,8H,9H,10H-cycloocta[b]pyran-3-yl})methyl]phenyl}-2-phenylethane-1-sulfonamide]",3.9
